Experimental data published in US10568918B2, “Composition comprising chlorella extract for preventing or treating liver disease” (GANGNEUNG-WONGJU NATIONAL UNIVERSITY INDUSTRY ACADEMY …, priority 2011, dated 2020).
Where “and” joins values, the source holds several entries; their conditions need not be identical. Identical values can stand only once.

Assays:
[1] = tested on: liver injury-induced animal models; assay: ALT, AST, γ-GT and LDH contents in blood serum of ethanol liver-injured animal model; type: in vivo, SD rats; conditions: 10 mg/kg in feed, 10 days
Description: The chlorella ethanol extract (CH) was used. The CH was dissolved in ethanol, and mixed with AlN-76 diet to be a daily intake of 50 mg or 100 mg per kg of a test animal weight and supplied to the animal. Specific pathogen free male SD rats of 5-week-old were purchased from Orient Bio Inc. (Seongnam, South Korea). After inspection and adaptation for 1 week, healthy animals without weight loss were selected and used for the test. Test animals were bred under a condition of temperature: 23±3, relative humidity: 50±10%, air change rate: 10-15 times/hour, lighting time: 12 hours (08:00-20:00) and luminous intensity: 150-300 Lux. During adaptation period of 1 week, the test animals were freely fed with solid feed for test animal (Superfeed Co., Ltd., Wonju, South Korea) and drinking water. […] The feed intake was measured every two days, and body weight was measured every week from the day of starting the oral administration of ethanol (0 day) to the final day of the experiment. […] To analyze contents of ALT, AST, γ-GT and LDH in a blood serum isolated from the blood collected on the day of the autopsy, alanine aminotransferase (ALT), aspartate aminotransferase (AST), gamma-glutamyl transferase (γ-GT) and lactic dehydrogenase (LDH) were analyzed using a blood biochemistry analyzer (KoneLab 20, Thermo Fisher Scientific, Waltham, […]).

[2] = tested on: liver injury-induced animal models; assay: SOD, CAT, GPx, ADH and ALDH activities in liver cytosol of ethanol liver-injured animal model; type: in vivo, SD rats; conditions: 10 mg/kg in feed, 10 days
Description: After inspection and adaptation for 1 week, healthy animals without weight loss were selected and used for the test. Test animals were bred under a condition of temperature: 23±3, relative humidity: 50±10%, air change rate: 10-15 times/hour, lighting time: 12 hours (08:00-20:00) and luminous intensity: 150-300 Lux. During adaptation period of 1 week, the test animals were freely fed with solid feed for test animal (Superfeed Co., Ltd., Wonju, South Korea) and drinking water. After the adaptation period of 1 week, healthy animals were selected, and divided to 5 groups by randomized block design. […] Test feeds were prepared by mixing each test compounds to the feed to the daily feeding amount of 50 or 100 mg per 1 kg of test animal weight as described above, and fed. […] The feed intake was measured every two days, and body weight was measured every week from the day of starting the oral administration of ethanol (0 day) to the final day of the experiment.
1 g liver tissue was homogenized with 0.25 M sucrose (pH 7.0). […] The activities of superoxide dismutase (SOD), catalase (CAT) and glutathione peroxidase (GPx) were measured using a kit of Cayman chemical company (Ann Arbor, Mich., USA). The activity of alcohol dehydrogenase (ADH) was measured by adding 0.2 M ethanol 10 μl, 0.05 M semicarbazide HCl 10 μl and 0.1 M NAD (in 0.01 M HCl) 10 μl to 0.1 M Tris-HCl buffer (pH 8.5) 160 μl followed by adding the cytosolic zymogen 10 μl thereto at 340 nm. […] The activity of acetaldehyde dehydrogenase (ALDH) was measured by adding 1 M KCl 10 μl, 0.1 M pyrazole 10 μl, 1 M 2-mercaptoethanol 10 μl, 0.1 M propione aldehyde 10 μl and 0.1 M NAD (in 0.01 M HCl) 10 μl to 0.2 M Tris-HCl buffer (pH 8.3) 150 μl followed by adding the cytosolic zymogen 10 μl at 340 nm, and the enzyme protein assay was conducted by a method of Lowry et al. (Lowry O H et al., 1957, J Biol Chem 193: 265-276).

[3] = tested on: liver injury-induced animal models; assay: Content of lipid peroxide in liver microsome of ethanol liver-injured animal model; type: in vivo, SD rats; conditions: EtOH +, 10 mg/kg, mean ± SEM
Description: 1 g Liver tissue was homogenized in 0.25 M sucrose (pH 7.0). […] The content of the lipid peroxide was measured by a lipid peroxide measuring kit (BioAssay Systems, Hayward, Calif., USA), and the protein quantification was conducted by a method of Lowry et al. (Lowry O H et al., 1957, J Biol Chem 193: 265-276).

quinone reductase = assay: Quinone reductase activity induction in Hepa1c1c7 liver cancer cells; type: cell-based, white rat; conditions: sulforaphane at 5 μM, 5 × 10^3 cell/wells
Description: For the ethanol extract and the ingredients of the isolated fractions, the quinone reductase activity induction was analyzed. In order to measure the quinone reductase activity induction effect of the fractions obtained from the chlorella, the experiment was conducted using a liver cancer cell line (Hepa1c1c7) of a white rat.
First of all, a-MEM (minimum essential medium)/10% FBS (fetal bovine serum) solution was mixed with a liver cell culture solution to make the cell number of 1×10^5 cells/Ml, and the resulting solution 100 μl was added to a 96-well plate followed by incubating for 24 hours under a condition of 5% CO2 and 37° C. […]
The protein solution 50 μl and reaction solution A (49 Ml 25 mM Tris buffer, 34 mg BSA, 0.34 Ml 1.5% tween-20 solution, 0.34 Ml co-enzyme solution, 100 unit glucose-6-phosphate dehydrogenase, 15 mg MTT, 50 μl 50 mM menadione) 200 μl were mixed together, and the absorbance increasing rate was measure at 610 nm using a microplate reader. The protein amount was measured at 595 nm using Bradford solution. […] The quinone reductase activity of the extract and the fraction was expressed as CD (the concentration of the sample where the quinone reductase activity of the sample-treated cell becomes twice).

[4] = tested on: liver injury-induced animal models; assay: Contents of triglyceride, total cholesterol and HDL-cholesterol in blood serum of ethanol liver-injured animal model; type: in vivo, SD rats; conditions: EtOH +, 10 mg/kg, mean ± SEM
Description: The chlorella ethanol extract (CH) was used. The CH was dissolved in ethanol, and mixed with AlN-76 diet to be a daily intake of 50 mg or 100 mg per kg of a test animal weight and supplied to the animal. Specific pathogen free male SD rats of 5-week-old were purchased from Orient Bio Inc. (Seongnam, South Korea). After inspection and adaptation for 1 week, healthy animals without weight loss were selected and used for the test. Test animals were bred under a condition of temperature: 23±3, relative humidity: 50±10%, air change rate: 10-15 times/hour, lighting time: 12 hours (08:00-20:00) and luminous intensity: 150-300 Lux. During adaptation period of 1 week, the test animals were freely fed with solid feed for test animal (Superfeed Co., Ltd., Wonju, South Korea) and drinking water. After the adaptation period of 1 week, healthy animals were selected, and divided to 5 groups by randomized block design. Namely, those were divided into a control group not treated with ethanol and the test material, a group orally administered with ethanol, a group orally administered with ethanol and fed with CH 50 mg/kg, a group orally administered with ethanol and fed with CH 100 mg/kg and a group orally administered with ethanol and fed with sulforaphane 10 mg/kg. The primary feed used in this experiment, AlN-76 was purchased from Research Diets, Inc. (New Brunswick, N.J., USA), and its composition is listed in Table 1. Test feeds were prepared by mixing each test compounds to the feed to the daily feeding amount of 50 or 100 mg per 1 kg of test animal weight as described above, and fed. […] The feeds containing the test compounds were fed for 10 days after 17th day of the ethanol administration, and the ethanol was orally administered together with the feed continuously. During the test period, drinking water was freely supplied. The feed intake was measured every two days, and body weight was measured every week from the day of starting the oral administration of ethanol (0 day) to the final day of the experiment. […]

[5] = tested on: liver injury-induced animal models; assay: Contents of total lipid, triglyceride and total cholesterol in liver tissue of ethanol liver-injured animal model; type: in vivo, SD rats; conditions: 10 mg/kg
Description: Specific pathogen free male SD rats of 5-week-old were purchased from Orient Bio Inc. (Seongnam, South Korea). After inspection and adaptation for 1 week, healthy animals without weight loss were selected and used for the test. Test animals were bred under a condition of temperature: 23±3, relative humidity: 50±10%, air change rate: 10-15 times/hour, lighting time: 12 hours (08:00-20:00) and luminous intensity: 150-300 Lux. During adaptation period of 1 week, the test animals were freely fed with solid feed for test animal (Superfeed Co., Ltd., Wonju, South Korea) and drinking water. After the adaptation period of 1 week, healthy animals were selected, and divided to 5 groups by randomized block design. […] Test feeds were prepared by mixing each test compounds to the feed to the daily feeding amount of 50 or 100 mg per 1 kg of test animal weight as described above, and fed. In order to induce the fatty liver by ethanol, 20% ethyl alcohol 5 g per kg (body weight) was orally administered twice a day (morning and afternoon) for 16 days. The feeds containing the test compounds were fed for 10 days after 17th day of the ethanol administration, and the ethanol was orally administered together with the feed continuously. During the test period, drinking water was freely supplied. The feed intake was measured every two days, and body weight was measured every week from the day of starting the oral administration of ethanol (0 day) to the final day of the experiment.
Total lipid content in the liver tissue was analyzed by homogenizing 1 g liver tissue in a saline 3 ml followed by homogenizing again with CM solution (Chloroform:Methanol=2:1) 9 ml. The homogenate was centrifuged at 3,000 rpm for 10 min, and the lower layer was collected and evaporated followed by measuring the total lipid content using a precision scale. The measured total lipid was dissolved in isopropanol, and the triglyceride content and the total choresterol content were measured by a quantitative analysis kit using an enzyme method (Asan Pharm. Co., Ltd., Hwaseong, South Korea).

[6] = did not show the significant difference

With C[S+]([O-])CCCCN=C=S (centres unmarked) [Sulforaphane] as the compound, how does the “serum γ-GT vs group orally administered with ethanol only” value [1] read?
The value was “did not show the significant difference”.

What about the “serum LDH content vs group orally administered with ethanol” value ([1]; with the significant difference) of the same compound?
The value was “decreased”.

And the “liver cytosol SOD activity vs ethanol administration group” value [2]?
The value was “increased”.

What about the “liver cytosol CAT activity vs ethanol administration group” value [2, 6] of the same compound?
The value was “increased”.

What about the “liver cytosol GPx activity vs group orally administered with ethanol” value [2, 6] of the same compound?
Its value is “increased”.

What about the “Lipid peroxide (μM/mg protein)” value [3] of the same compound?
The value was 2.07 μM/mg protein.

And the “CD (concentration of the sample where the quinone reductase activity of the sample-treated cell becomes twice)” value (quinone reductase)?
Its value is 1.94 µg/mL and 2.48 µg/mL and 2.07 µg/mL.

What about the “HDL-cholesterol” value [4] of the same compound?
The value was 33.39 mg/dL.

What about the “Total cholesterol” value [4] of the same compound?
Its value is 94.25 mg/dL.

And the “Triglyceride” value [4]?
Its value is 126.11 mg/dL.

And the “total liver cholesterol contents vs group orally administered with ethanol” value ([5]; showed the significant difference)?
Its value is “decreased”.

What about the “Total cholesterol (mg/g liver)” value ([5]; EtOH +, mean ± SEM) of the same compound?
The value was 4.39 mg/g liver.

What about the “Total lipid (mg/g liver)” value ([5]; EtOH +, mean ± SEM) of the same compound?
Its value is 48.26 mg/g liver.

And the “Triglyceride (mg/g liver)” value ([5]; EtOH +, mean ± SEM)?
Its value is 13.28 mg/g liver.
